{
  "source": "patent EP3826985B1",
  "about": "“DENDRIMER-TYPE COMPOUNDS, METHODS FOR PRODUCING SAME, AND USES THEREOF” (Université De Reims Champagne-Ardenne, priority 2018, dated 2020)",
  "assay": "Metal cation trapping by dendrimer (dialysis, ICP-AES)",
  "protocol": "Une solution aqueuse contenant l'ion métallique (6 mL, Cf = 4.10^-5 mol/L) a été mélangée avec une solution aqueuse de II.6 (6 mL; 2.10^-6 mol/L); la solution résultante a été agitée pendant 2h à une vitesse d'agitation de 300 tours/min à température ambiante.\nUne dialyse d'une heure a été réalisée en utilisant une membrane d'ester de cellulose (Cutoff 1000) dans de l'eau distillée (1L). Pour déterminer la quantité d'ion métallique extraite par le dendrimère, 10 mL de l'eau de dialyse ont été prélevés pour l'analyse ICP-AES (Spectrométrie à plasma à couplage inductif - Spectrométrie d'Emission Atomique).\nL'analyse de l'eau de dialyse par ICP-AES (Thermo Scientific, iCAP 6000 Séries) a permis d'obtenir la quantité de métal résiduelle. La quantité d'ions (M^n+) présente dans la phase dendrimère a été obtenue par différence entre la quantité initiale et la quantité résiduelle.\nLe pourcentage de rétention (% R) a été calculé selon l'expression suivante : %R = (n(Maq(initial))−n(Maq(final)))/(n Maq(initial)) × 100 [formula] avec n (Maq(initial)) et n (Maq(final)), les nombres de moles d'ions métalliques respectivement dans la solution de départ et dans l'eau de dialyse après extraction.",
  "data": [
    {"smiles": "OCC(O)COCC(COCC(COCC(COCC(COCC(COCC(O)CO)OCC(O)CO)OCC(COCC(O)CO)OCC(O)CO)OCC(COCC(COCC(O)CO)OCC(O)CO)OCC(COCC(O)CO)OCC(O)CO)OCC(COCC(O)CO)OCC(O)CO)OCC(O)CO", "note": "(stereo not shown) [II.6]", "values": [
      {"measurement": "% R", "setting": "Ag^+, Rapport n (Maq (initial)) / n (II.6) = 104,5", "value": 88, "unit": "%"},
      {"measurement": "% R", "setting": "Cd^2+, Rapport n (Maq (initial)) / n (II.6) = 73", "value": "95,5%"},
      {"measurement": "% R", "setting": "Ce^3+, Rapport n (Maq (initial)) / n (II.6) = 93", "value": ">95", "unit": "%"},
      {"measurement": "% R", "setting": "Cu^2+, Rapport n (Maq (initial)) / n (II.6) = 63,6", "value": 75, "unit": "%"},
      {"measurement": "% R", "setting": "Hg^2+, Rapport n (Maq (initial)) / n (II.6) = 140", "value": 85, "unit": "%"},
      {"measurement": "% R", "setting": "Ni^2+, Rapport n (Maq (initial)) / n (II.6) = 85,5", "value": 89, "unit": "%"},
      {"measurement": "% R", "setting": "Pb^2+, Rapport n (Maq (initial)) / n (II.6) = 77", "value": 99, "unit": "%"}
    ]}
  ]
}
